The record followed here is the OligoGym collection.

HELM strings list units from the 5' end as sugar, base in round brackets, then linkage (d deoxyribose, r ribose, m 2'-O-methyl, p phosphodiester). Strings are as the collection lists them; they lack the last nucleoside at the 3' end of the tested compound. [moe] = 2'-O-(2-methoxyethyl) (MOE); [sp] = phosphorothioate linkage; [m5C] = 5-methylcytosine

This data set addresses LRRK2. Briefly: mouse, dose not given. Conditions: ASO.
Turning to “RNA1{[moe](T)[sp].[moe]([m5C])p.[moe](A)p.[moe]([m5C])p.[moe]([m5C])[sp].d(A)[sp].d([m5C])[sp].d(A)[sp].d(A)[sp].d(A)[sp].d([m5C])[sp].d(T)[sp].d([m5C])[sp].d(A)[sp].d(T)[sp].[moe](G)p.[moe](G)p.[moe](A)[sp].[moe]([m5C])}$$$$ (last 3' nucleoside missing)”, the 3 h FOB score amounted to 3 score 0-7.
“RNA1{[moe]([m5C])[sp].[moe]([m5C])p.[moe](A)[sp].[moe]([m5C])[sp].[moe](A)[sp].d(A)[sp].d(A)[sp].d([m5C])[sp].d(T)[sp].d([m5C])[sp].d(A)[sp].d(T)[sp].d(G)[sp].d(G)[sp].d(A)[sp].[moe]([m5C])[sp].[moe](T)p.[moe](T)[sp].[moe]([m5C])}$$$$ (last 3' nucleoside missing)” displayed a 3 h FOB score of 7 score 0-7.
Turning to “RNA1{[moe]([m5C])[sp].[moe](G)p.[moe]([m5C])[sp].[moe](A)[sp].[moe]([m5C])[sp].d(T)[sp].d(T)[sp].d(A)[sp].d(A)[sp].d([m5C])[sp].d(A)[sp].d(A)[sp].d(T)[sp].d(A)[sp].d(T)[sp].[moe]([m5C])[sp].[moe](A)p.[moe](T)[sp].[moe](A)}$$$$ (last 3' nucleoside missing)”, the 3 h FOB score is 1 score 0-7.
The result for “RNA1{[moe](T)[sp].[moe]([m5C])p.[moe](T)p.[moe](T)p.[moe]([m5C])[sp].d(A)[sp].d(G)[sp].d(T)[sp].d(T)[sp].d([m5C])[sp].d([m5C])[sp].d(T)[sp].d(T)[sp].d([m5C])[sp].d(A)[sp].[moe](G)p.[moe](T)p.[moe]([m5C])[sp].[moe](T)}$$$$ (last 3' nucleoside missing)” reads 3 score 0-7.
In turn, “RNA1{[moe](A)[sp].[moe](T)p.[moe](T)[sp].[moe](G)[sp].[moe]([m5C])[sp].d([m5C])[sp].d(A)[sp].d([m5C])[sp].d(T)[sp].d([m5C])[sp].d(A)[sp].d(T)[sp].d(G)[sp].d(A)[sp].d(G)[sp].[moe](G)[sp].[moe](A)p.[moe]([m5C])[sp].[moe](T)}$$$$ (last 3' nucleoside missing)” gave a 3 h FOB score of 4 score 0-7.
The result for “RNA1{[moe](G)[sp].[moe]([m5C])p.[moe](T)p.[moe](T)p.[moe](T)[sp].d([m5C])[sp].d(A)[sp].d(T)[sp].d(A)[sp].d(G)[sp].d([m5C])[sp].d(T)[sp].d(T)[sp].d([m5C])[sp].d([m5C])[sp].[moe](A)p.[moe]([m5C])p.[moe]([m5C])[sp].[moe](A)}$$$$ (last 3' nucleoside missing)” reads 0 score 0-7; that for “RNA1{[moe](G)[sp].[moe]([m5C])p.[moe]([m5C])[sp].[moe](A)[sp].[moe]([m5C])[sp].d(T)[sp].d(T)[sp].d(T)[sp].d([m5C])[sp].d(A)[sp].d(G)[sp].d([m5C])[sp].d([m5C])[sp].d(A)[sp].d([m5C])[sp].[moe](T)[sp].[moe](T)p.[moe]([m5C])[sp].[moe](A)}$$$$ (last 3' nucleoside missing)”, 7 score 0-7; that for “RNA1{[moe](T)[sp].[moe](G)p.[moe](T)[sp].[moe]([m5C])[sp].[moe](A)[sp].d([m5C])[sp].d([m5C])[sp].d(T)[sp].d(T)[sp].d(T)[sp].d([m5C])[sp].d([m5C])[sp].d([m5C])[sp].d(A)[sp].d(A)[sp].[moe](T)[sp].[moe](G)p.[moe]([m5C])[sp].[moe](T)}$$$$ (last 3' nucleoside missing)”, 5 score 0-7.
For “RNA1{[moe](G)[sp].[moe](A)p.[moe](G)[sp].[moe](T)[sp].[moe](G)[sp].d([m5C])[sp].d(A)[sp].d(T)[sp].d(G)[sp].d(G)[sp].d([m5C])[sp].d(A)[sp].d(T)[sp].d([m5C])[sp].d(A)[sp].[moe](A)[sp].[moe](A)p.[moe](A)[sp].[moe](A)}$$$$ (last 3' nucleoside missing)”, the 3 h FOB score came to 2 score 0-7.
